Laboratory results: patent publication US9120094B2, “Polymerization of bis[3-(diethoxyphosphoryl)propyl]diallylammonium chloride” (King Fahd University of Petroleum and Minerals, priority 2013, dated 2015)

Tests used:
[1] = Solubility behavior of polymers in solvents; assay type: physicochemical; settings: water (salt-free)
Method: After stirring a mixture of PZ 5 or PZA 7 (2 w/w %) in a solvent at 70° C. […] Table II is presented below.

[2] = Potentiometric titration for protonation (basicity) constants; assay type: physicochemical; settings: monomer, 0.0175M NaCl at 23° C.
Source text: Procedure for the determination of the protonation constants (K1, K2 and K3) of the polyzwitterion/trianion (PZTAN) 10 (Z^±≡) and K1, K2 and K4 of its corresponding monomer ZTAN 15 (Z^±≡) by potentiometric titrations, carried out in an atmosphere of N2 in CO2-free water, is described elsewhere (Al-Muallem, H. A.; Wazeer M. I. M.; Ali, S. A. Polymer, 2002, 43, 4285—incorporated herein by reference in its entirety). A certain mmol of PZA 7 (ZH3^±) or 11 (ZH4^+) in 200 cm^3 of 0.0175 M NaCl was used in each trial (Tables 3 and 4). As the polymer was insoluble in salt-free water, it (≈100 mg) was first dissolved in 1 M NaCl (3.5 mL) and then diluted to 200 mL to make the polymer solution in 0.0175 M NaCl. For the sake of comparison the NaCl strength of water-soluble monomer 11 was also kept at 0.0175 M.
The Log K1, Log K2 and Log K3 of the respective protonation of ^2−O3P—X^+—PO3^2− [in (±≡) PZTAN 10], ^2O3P—X^+—PO3H^− [in (±=) (PZDAN) 9] and ^−HO3P—X^+—PO3H^− [(in (±−) plyzwitterion/anion (PZAN) 8] were calculated at each pH value by the Henderson-Hasselbalch eq 2 (Scheme 2) where the degree of protonation (α) is the ratios [ZH^±=]eq/[Z]o, [ZH2^±−]eq/[Z]o and [ZH3^±]eq/[Z]o, respectively. The [ZH^±=]eq, [ZH2^±−]eq and [ZH3^±]eq represent the respective equilibrium concentrations of the first (9), second (8) and third protonated species (7) whereas [Z]o describes the initial concentration of repeating units.
For the determination of the third step [8 (ZH2^±−)+H^+⇄7 (ZH3^±)] protonation constant (log K3) using the titration of PZA 7 [ZH3^±] with NaOH, α represents the ratio [ZH3^±]eq/[Z]o whereby [Z]o and [ZH3^±]eq are related by [ZH3^±]eq=[Z]o—COH^−—[H^+]+[OH^−], where COH^− represent the added NaOH concentration. The equilibrium [H^+] and [OH^−] values were calculated from the pH value. Continuing the titration, the second step [9 (ZH^±=)+H^+⇄8 (ZH2^±−)] protonation constant (log K2) was determined using volume of the titrant after deducting the equivalent volume from the total volume. […]

C=CC[N+](CC=C)(CCCP(=O)(O)O)CCCP(=O)(O)O.[Cl-] [compound 11]
Solubility in words [1]: water-soluble

C=CC[N+](CC=C)(CCCP(=O)([O-])[O-])CCCP(=O)([O-])[O-].[Na+].[Na+].[Na+] [compound 15]
Log Ki^o (log K4) ([2]; fourth step 12 (ZH3±) to 11 (ZH4+), approximate, 2[Z]o used): 2.30
Log Ki^o (log K2) ([2]; second step protonation): 7.43
Log Ki^o (log K1) ([2]; titration of 11 (ZH4+) with NaOH, first step protonation of 15): 9.78
